pIC50: −log10 of the molar value.
Target: Factor IXa (Homo sapiens, UniProt P00740)
Assay: Determination of inhibitory activity against Factor IXa (cleavage of fluorescent peptide CH3SO2-D-CHG-Gly-Arg-AFC)
Assay type: biochemical
Settings: Factor IXa Inhibition table; low enzyme format; read-out: FIXa Low Enzyme
Experimental: Determination of Inhibitory Activity Against Factor IXa
Formation of a clot to stem bleeding at a site of blood vessel injury involves the coordinated activity of a group of plasma proteins that initiate and propagate fibrin formation and subsequently protect fibrin from premature degradation. Factor IX is a key component of the plasma system that forms a fibrin clot at a site of vascular injury. The activity of Factor IXa is measured by monitoring the cleavage of the fluorescent peptide, CH3SO2-D-CHG-Gly-Arg-AFC.AcOH (“CHG” is cyclohexyl-glycine and “AFC” is trifluoro aminomethyl coumarin). Factor IXa cleaves the amide bond between Arg and AFC, thereby releasing the AFC fluorophore. The free AFC can be detected with a fluorescence detector at an excitation wavelength of 405 nm and emission wavelength of 510 nm.

Chain of Factor IXa (P00740 227-461 limits assumed): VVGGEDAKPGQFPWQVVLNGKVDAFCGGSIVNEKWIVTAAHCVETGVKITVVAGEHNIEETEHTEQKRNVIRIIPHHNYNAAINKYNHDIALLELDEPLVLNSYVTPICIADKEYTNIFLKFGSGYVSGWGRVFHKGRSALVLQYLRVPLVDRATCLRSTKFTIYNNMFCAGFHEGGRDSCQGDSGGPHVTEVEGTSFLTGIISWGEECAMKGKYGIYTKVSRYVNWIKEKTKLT
Chain of Factor IXa (P00740 47-191 partner limits assumed): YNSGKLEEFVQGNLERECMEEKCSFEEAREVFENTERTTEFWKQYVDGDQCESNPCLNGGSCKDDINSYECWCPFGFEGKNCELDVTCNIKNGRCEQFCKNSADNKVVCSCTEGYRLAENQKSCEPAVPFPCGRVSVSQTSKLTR

pIC50	Structure (SMILES)
8.33	Nc1nsc2c1ccc1[nH]c([C@H](O)[C@H]3OCCN(c4ccn(-c5ccncc5)n4)C3=O)nc(=O)c12 [Example 2, (R)-2-((S)-(3-Amino-9-oxo-6,9-dihydroisothiazolo[5,4-f]quinazolin-7-yl)(hydroxy)methyl)-4-(1-(pyridin-4-yl)-1H-pyrazol-3-yl)morpholin-3-one]
7.61	Nc1nsc2c1ccc1[nH]c([C@H](O)[C@H]3OCCN(c4cccc(C5(O)CCC5)n4)C3=O)nc(=O)c12 [Example 24, (R)-2-((S)-(3-Amino-9-oxo-6,9-dihydroisothiazolo[5,4-f]quinazolin-7-yl)(hydroxy)methyl)-4-(6-(1-hydroxycyclobutyl)pyridin-2-yl)morpholin-3-one]
8.03	Nc1nsc2c1ccc1[nH]c([C@H](O)[C@H]3OCCN(c4ccn(-c5ccnc(C(F)(F)F)c5)n4)C3=O)nc(=O)c12 [Example 7, (R)-2-((S)-(3-Amino-9-oxo-6,9-dihydroisothiazolo[5,4-f]quinazolin-7-yl)(hydroxy)methyl)-4-(1-(2-(trifluoromethyl)pyridin-4-yl)-1H-pyrazol-3-yl)morpholin-3-one]
7.93	Nc1nsc2c1ccc1[nH]c([C@H](O)[C@H]3OCCN(c4cccc(C(O)C(F)(F)F)n4)C3=O)nc(=O)c12 (stereo partly drawn) [Example 25, (2R)-2-((S)-(3-Amino-9-oxo-6,9-dihydroisothiazolo[5,4-f]quinazolin-7-yl)(hydroxy)methyl)-4-(6-(2,2,2-trifluoro-1-hydroxyethyl)pyridin-2-yl)morpholin-3-one]
8.73	Nc1nsc2c1ccc1[nH]c([C@H](O)[C@H]3OCCN(c4ccn(-c5ccnnc5)n4)C3=O)nc(=O)c12 [Example 9, (R)-2-((S)-(3-Amino-9-oxo-6,9-dihydroisothiazolo[5,4-f]quinazolin-7-yl)(hydroxy)methyl)-4-(1-(pyridazin-4-yl)-1H-pyrazol-3-yl)morpholin-3-one]
7.36	Cc1cc(N2CCO[C@H]([C@@H](O)c3nc(=O)c4c(ccc5c(N)nsc54)[nH]3)C2=O)nn1C [Example 14, (R)-2-((S)-(3-Amino-9-oxo-6,9-dihydroisothiazolo[5,4-f]quinazolin-7-yl)(hydroxy)methyl)-4-(1,5-dimethyl-1H-pyrazol-3-yl)morpholin-3-one]
7.36	Nc1nsc2c1ccc1[nH]c([C@H](O)[C@H]3OCCN(c4cccc(C(F)(F)F)n4)C3=O)nc(=O)c12 [Example 17, (R)-2-((S)-(3-Amino-9-oxo-6,9-dihydroisothiazolo[5,4-f]quinazolin-7-yl)(hydroxy)methyl)-4-(6-(trifluoromethyl)pyridin-2-yl)morpholin-3-one]
7.05	Nc1nsc2c1ccc1[nH]c([C@H](O)[C@H]3OCCN(c4cccc(C5CC5)n4)C3=O)nc(=O)c12 [Example 20, (R)-2-((S)-(3-Amino-9-oxo-6,9-dihydroisothiazolo[5,4-f]quinazolin-7-yl)(hydroxy)methyl)-4-(6-cyclopropylpyridin-2-yl)morpholin-3-one]
7.97	COc1cc(-n2ccc(N3CCO[C@H]([C@@H](O)c4nc(=O)c5c(ccc6c(N)nsc65)[nH]4)C3=O)n2)ccn1 [Example 5, (R)-2-((S)-(3-Amino-9-oxo-6,9-dihydroisothiazolo[5,4-f]quinazolin-7-yl)(hydroxy)methyl)-4-(1-(2-methoxypyridin-4-yl)-1H-pyrazol-3-yl)morpholin-3-one]
7.50	Cc1cc(N2CCO[C@H]([C@@H](O)c3nc(=O)c4c(ccc5c(N)nsc54)[nH]3)C2=O)nn1C1CCOCC1 [Example 16, (R)-2-((S)-(3-Amino-9-oxo-6,9-dihydroisothiazolo[5,4-f]quinazolin-7-yl)(hydroxy)methyl)-4-(5-methyl-1-(tetrahydro-2H-pyran-4-yl)-1H-pyrazol-3-yl)morpholin-3-one]
7.24	COc1cc(-n2nc(N3CCO[C@H]([C@@H](O)c4nc(=O)c5c(ccc6c(N)nsc65)[nH]4)C3=O)cc2C)ccn1 [Example 6, (R)-2-((S)-(3-Amino-9-oxo-6,9-dihydroisothiazolo[5,4-f]quinazolin-7-yl)(hydroxy)methyl)-4-(1-(2-methoxypyridin-4-yl)-5-methyl-1H-pyrazol-3-yl)morpholin-3-one]
7.40	Nc1nsc2c1ccc1[nH]c([C@H](O)[C@H]3OCCN(c4ccn(C5CC5)n4)C3=O)nc(=O)c12 [Example 15, (R)-2-((S)-(3-Amino-9-oxo-6,9-dihydroisothiazolo[5,4-f]quinazolin-7-yl)(hydroxy)methyl)-4-(1-cyclopropyl-1H-pyrazol-3-yl)morpholin-3-one]
7.50	CC(=O)OC1(c2cccc(N3CCO[C@H]([C@@H](O)c4nc(=O)c5c(ccc6c(N)nsc65)[nH]4)C3=O)n2)CCC1 [Example 23, 1-(6-((R)-2-((S)-(3-Amino-9-oxo-6,9-dihydroisothiazolo[5,4-f]quinazolin-7-yl)(hydroxy)methyl)-3-oxomorpholino)pyridin-2-yl)cyclobutyl acetate]
7.71	CC(O)(c1cccc(N2CCO[C@H]([C@@H](O)c3nc(=O)c4c(ccc5c(N)nsc54)[nH]3)C2=O)n1)C(F)(F)F (stereo partly drawn) [Example 26, (2R)-2-((S)-(3-Amino-9-oxo-6,9-dihydroisothiazolo[5,4-f]quinazolin-7-yl)(hydroxy)methyl)-4-(6-(1,1,1-trifluoro-2-hydroxypropan-2-yl)pyridin-2-yl)morpholin-3-one]
7.08	Nc1nsc2c1ccc1[nH]c([C@H](O)[C@H]3OCCN(c4cccc(OC(F)F)n4)C3=O)nc(=O)c12 [Example 19, (R)-2-((S)-(3-Amino-9-oxo-6,9-dihydroisothiazolo[5,4-f]quinazolin-7-yl)(hydroxy)methyl)-4-(6-(difluoromethoxy)pyridin-2-yl)morpholin-3-one]
7.55	N#Cc1ccc(-n2ccc(N3CCO[C@H]([C@@H](O)c4nc(=O)c5c(ccc6c(N)nsc65)[nH]4)C3=O)n2)cc1C(F)(F)F [Example 13, 4-(3-((R)-2-((S)-(3-Amino-9-oxo-6,9-dihydroisothiazolo[5,4-f]quinazolin-7-yl)(hydroxy)methyl)-3-oxomorpholino)-1H-pyrazol-1-yl)-2-(trifluoromethyl)benzonitrile]
7.28	Cc1cc(N2CCO[C@H]([C@@H](O)c3nc(=O)c4c(ccc5c(N)nsc54)[nH]3)C2=O)nn1-c1ccc(F)cc1 [Example 11, (R)-2-((S)-(3-Amino-9-oxo-6,9-dihydroisothiazolo[5,4-f]quinazolin-7-yl)(hydroxy)methyl)-4-(1-(4-fluorophenyl)-5-methyl-1H-pyrazol-3-yl)morpholin-3-one]
8.51	N#Cc1ccc(-n2ccc(N3CCO[C@H]([C@@H](O)c4nc(=O)c5c(ccc6c(N)nsc65)[nH]4)C3=O)n2)cc1 [Example 12, 4-(3-((R)-2-((S)-(3-Amino-9-oxo-6,9-dihydroisothiazolo[5,4-f]quinazolin-7-yl)(hydroxy)methyl)-3-oxomorpholino)-1H-pyrazol-1-yl)benzonitrile]
7.84	Nc1noc2c1ccc1[nH]c([C@H](O)[C@H]3OCCN(c4ccn(-c5ccncc5)n4)C3=O)nc(=O)c12 [Example 1, 3-Amino-7-((S)-hydroxy((R)-3-oxo-4-(1-(pyridin-4-yl)-1H-pyrazol-3-yl)morpholin-2-yl)methyl)isoxazolo[5,4-f]quinazolin-9(6H)-one]
7.59	CC(C)(O)c1nc(N2CCO[C@H]([C@@H](O)c3nc(=O)c4c(ccc5c(N)nsc54)[nH]3)C2=O)ccc1C(F)(F)F [Example 22, (R)-2-((S)-(3-Amino-9-oxo-6,9-dihydroisothiazolo[5,4-f]quinazolin-7-yl)(hydroxy)methyl)-4-(6-(2-hydroxypropan-2-yl)-5-(trifluoromethyl)pyridin-2-yl)morpholin-3-one]
7.23	Cc1cc(N2CCO[C@H]([C@@H](O)c3nc(=O)c4c(ccc5c(N)nsc54)[nH]3)C2=O)nn1-c1cccnc1 [Example 4, (R)-2-((S)-(3-Amino-9-oxo-6,9-dihydroisothiazolo[5,4-f]quinazolin-7-yl)(hydroxy)methyl)-4-(5-methyl-1-(pyridin-3-yl)-1H-pyrazol-3-yl)morpholin-3-one]
7.95	Cc1cc(N2CCO[C@H]([C@@H](O)c3nc(=O)c4c(ccc5c(N)nsc54)[nH]3)C2=O)nn1-c1ccncc1 [Example 3, (R)-2-((S)-(3-Amino-9-oxo-6,9-dihydroisothiazolo[5,4-f]quinazolin-7-yl)(hydroxy)methyl)-4-(5-methyl-1-(pyridin-4-yl)-1H-pyrazol-3-yl)morpholin-3-one]
7.91	CC(C)(O)c1cccc(N2CCO[C@H]([C@@H](O)c3nc(=O)c4c(ccc5c(N)nsc54)[nH]3)C2=O)n1 [Example 21, (R)-2-((S)-(3-Amino-9-oxo-6,9-dihydroisothiazolo[5,4-f]quinazolin-7-yl)(hydroxy)methyl)-4-(6-(2-hydroxypropan-2-yl)pyridin-2-yl)morpholin-3-one]
7.35	Nc1nsc2c1ccc1[nH]c([C@H](O)[C@H]3OCCN(c4nc(C(F)(F)F)ccc4F)C3=O)nc(=O)c12 [Example 18, (R)-2-((S)-(3-Amino-9-oxo-6,9-dihydroisothiazolo[5,4-f]quinazolin-7-yl)(hydroxy)methyl)-4-(3-fluoro-6-(trifluoromethyl)pyridin-2-yl)morpholin-3-one]

Same assay, conditions: table of additional examples; low enzyme format; read-out: FIXa Low Enzyme

pIC50	Structure (SMILES)
7.56	Nc1nccc2cc3[nH]c([C@H](O)[C@H]4OCCN(c5ccn(-c6ccncc6)n5)C4=O)nc(=O)c3cc12 [Example 28, (R)-2-((S)-(6-Amino-4-oxo-1,4-dihydropyrido[3,4-g]quinazolin-2-yl)(hydroxy)methyl)-4-(1-(pyridin-4-yl)-1H-pyrazol-3-yl)morpholin-3-one]

Reference: patent publication US9695198B2, “Factor IXa inhibitors” (MERCK SHARP & DOHME CORP., priority 2012, dated 2017)
